Source: patent US9987276B2 (Celgene CAR LLC, priority 2008, dated 2018)
Where two headings read alike, the source gives them in different places.

Legend:
ITK = ITK (Homo sapiens (Human), UniProt Q08881); experiment: Omnia assay for potency assessment against active forms of ITK kinase; assay type: biochemical; conditions: [ITK]=10 nM, [ATP]=25, [Y6-Sox]=10 μM; read-out: ITK Inhibition
Experimental: [ITK]=10 nM, [ATP]=25 [Y6-Sox]=10 μM (ATP KMapp=33 μM).

BTK = BTK (Homo sapiens (Human), UniProt Q06187); experiment: Omnia assay for potency assessment against BTK; assay type: biochemical; conditions: [BTK]=5 nM, Omnia assay; read-out: BTK Inhibition (IC50)
Sequence of BTK (Q06187 whole entry): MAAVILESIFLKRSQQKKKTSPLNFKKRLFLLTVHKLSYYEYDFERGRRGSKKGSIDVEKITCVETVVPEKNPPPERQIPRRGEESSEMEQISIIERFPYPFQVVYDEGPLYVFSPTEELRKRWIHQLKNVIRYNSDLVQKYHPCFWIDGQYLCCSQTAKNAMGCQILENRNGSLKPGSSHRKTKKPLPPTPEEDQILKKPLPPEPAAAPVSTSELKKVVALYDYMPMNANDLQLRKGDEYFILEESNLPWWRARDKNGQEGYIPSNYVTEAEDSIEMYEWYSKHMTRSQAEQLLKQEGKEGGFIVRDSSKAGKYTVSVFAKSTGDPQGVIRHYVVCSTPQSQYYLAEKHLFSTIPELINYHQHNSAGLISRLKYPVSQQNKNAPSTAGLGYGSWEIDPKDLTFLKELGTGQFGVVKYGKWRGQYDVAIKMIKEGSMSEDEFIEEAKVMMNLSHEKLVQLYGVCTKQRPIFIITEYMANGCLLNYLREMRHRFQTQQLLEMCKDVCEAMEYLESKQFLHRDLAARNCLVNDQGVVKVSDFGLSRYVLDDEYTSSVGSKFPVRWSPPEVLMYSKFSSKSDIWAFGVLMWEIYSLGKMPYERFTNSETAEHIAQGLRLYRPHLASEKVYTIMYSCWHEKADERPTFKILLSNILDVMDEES
Experimental: The modified BTK-optimized reagent conditions for the above protocol are:
[BTK]=5 nM, [ATP]=[…], [Y5-Sox]=[…] (ATP KMapp˜[…]).

EGFR-WT = EGFR-WT (Homo sapiens (Human), UniProt P00533); experiment: Omnia assay for potency assessment against EGFR (WT)
Sequence of EGFR-WT (P00533 668-1210): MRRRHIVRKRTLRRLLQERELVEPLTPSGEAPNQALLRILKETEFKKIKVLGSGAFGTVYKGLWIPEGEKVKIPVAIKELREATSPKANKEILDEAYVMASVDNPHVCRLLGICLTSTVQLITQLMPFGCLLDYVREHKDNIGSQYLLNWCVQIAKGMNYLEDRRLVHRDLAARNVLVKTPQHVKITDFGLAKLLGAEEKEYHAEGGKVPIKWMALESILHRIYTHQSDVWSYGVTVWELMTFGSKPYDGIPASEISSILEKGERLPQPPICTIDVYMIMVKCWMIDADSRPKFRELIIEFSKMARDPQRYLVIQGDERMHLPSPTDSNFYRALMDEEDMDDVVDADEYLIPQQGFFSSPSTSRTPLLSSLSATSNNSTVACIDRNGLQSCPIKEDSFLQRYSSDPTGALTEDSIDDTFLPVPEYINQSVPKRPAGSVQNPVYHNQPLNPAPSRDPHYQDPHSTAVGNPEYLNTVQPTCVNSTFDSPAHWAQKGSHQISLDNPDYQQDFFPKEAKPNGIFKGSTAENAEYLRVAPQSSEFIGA

[1] = read-out: EGFR (wild type inhibition), EGFR wild type

Sequence of ITK (Q08881 whole entry): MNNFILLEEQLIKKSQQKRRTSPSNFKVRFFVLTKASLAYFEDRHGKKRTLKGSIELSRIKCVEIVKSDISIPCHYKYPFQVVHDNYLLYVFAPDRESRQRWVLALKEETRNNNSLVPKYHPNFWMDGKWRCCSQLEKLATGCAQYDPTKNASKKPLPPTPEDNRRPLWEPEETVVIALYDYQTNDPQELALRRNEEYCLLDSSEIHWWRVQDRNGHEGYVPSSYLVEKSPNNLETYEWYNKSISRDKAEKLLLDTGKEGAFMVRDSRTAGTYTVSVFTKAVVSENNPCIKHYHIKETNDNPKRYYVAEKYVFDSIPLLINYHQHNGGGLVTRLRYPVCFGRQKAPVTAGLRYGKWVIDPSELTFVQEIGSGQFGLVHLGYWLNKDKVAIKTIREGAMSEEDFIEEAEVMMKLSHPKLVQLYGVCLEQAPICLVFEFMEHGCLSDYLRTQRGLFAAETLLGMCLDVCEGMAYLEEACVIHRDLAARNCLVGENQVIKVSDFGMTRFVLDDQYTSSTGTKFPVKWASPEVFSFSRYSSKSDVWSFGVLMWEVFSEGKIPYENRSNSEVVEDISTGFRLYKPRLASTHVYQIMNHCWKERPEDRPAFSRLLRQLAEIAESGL

C=CC(=O)Nc1cccc(Nc2nc(Nc3ccc(Cl)c(O[C@H]4CCOC4)c3)ncc2F)c1 [Compound I-354, (S)—N-(3-(2-(4-chloro-3-(tetrahydrofuran-3-yloxy)phenylamino)-5-fluoropyrimidin-4-ylamino)phenyl)acrylamide]
IC50 (ITK): 100 to 1000 nM | IC50 (BTK): < 10 nM | IC50 (EGFR-WT): 100 to 1000 nM

C=CC(=O)Nc1cccc(Nc2nc(Nc3ccc(OCCOCCNC(=O)OC(C)(C)C)c(F)c3)ncc2F)c1 [Compound I-356, tert-butyl 2-(2-(4-(4-(3-acrylamidophenylamino)-5-fluoropyrimidin-2-ylamino)-2-fluorophenoxy)ethoxy)ethylcarbamate]
IC50 (ITK): 10 to 100 nM | IC50 (BTK): < 10 nM | IC50 (EGFR-WT): 100 to 1000 nM

C=CC(=O)Nc1cccc(Nc2nc(Nc3ccc(Cl)c(OC(C)(C)CO)c3)ncc2F)c1 [Compound I-336, N-(3-(2-(4-chloro-3-(1-hydroxy-2-methylpropan-2-yloxy)phenylamino)-5-fluoropyrimidin-4-ylamino)phenyl)acrylamide]
IC50 (ITK): 100 to 1000 nM | IC50 (BTK): < 10 nM | IC50 (EGFR-WT): 100 to 1000 nM

C=CC(=O)Nc1cccc(Nc2nc(Nc3ccc(OC[C@@H]4C[C@@H](O)CN4)c(F)c3)ncc2F)c1 [Compound I-355]
IC50 (ITK): 10 to 100 nM | IC50 (BTK): < 10 nM | IC50 (EGFR-WT): 10 to 100 nM

COCCOc1ccc(Nc2ncc(F)c(Nc3cccc(NC(=O)/C=C/CN4CC[C@@H](O)C4)c3)n2)cc1 [Compound I-89, (R,E)-N-(3-(5-fluoro-2-(4-(2-methoxyethoxy)phenylamino)pyrimidin-4-ylamino)phenyl)-4-(3-hydroxypyrrolidin-1-yl)but-2-enamide]
IC50 (ITK): 10 to 100 nM | IC50 (BTK): < 10 nM | IC50 (EGFR-WT): 10 to 100 nM

C=CC(=O)Nc1cccc(Nc2nc(Nc3cccc(OCCCNC(=O)CCCC(=O)NCCCOCCOCCOCCCNC(=O)CCCC[C@H]4SC[C@H]5NC(=O)N[C@H]54)c3)ncc2C)c1 [Compound I-215, N^1-(3-(3-(4-(3-acrylamidophenylamino)-5-methylpyrimidin-2-ylamino)phenoxy)propyl)-N^5-(15-oxo-19-((3aR,4R,6aS)-2-oxohexahydro-1H-thieno[3,4-d]imidazol-4-yl)-4,7,10-trioxa-14-azanonadecyl)glutaramide]
IC50 (ITK): 10 to 100 nM | IC50 (BTK): < 10 nM | IC50 (EGFR-WT): 10 to 100 nM

C=C(C)C(=O)c1cccc(Nc2nc(Nc3cccc(OC(F)(F)F)c3)ncc2F)c1 [Compound I-199, 1-(3-(5-fluoro-2-(3-(trifluoromethoxy)phenylamino)pyrimidin-4-ylamino)phenyl)-2-methylprop-2-en-1-one]
IC50 (ITK): 10 to 100 nM | IC50 (BTK): < 10 nM | IC50 (EGFR-WT): 10 to 100 nM

C=CC(=O)Nc1cccc(Nc2nc(Nc3ccc(N4CCS(=O)(=O)CC4)nc3)ncc2F)c1 [Compound I-72, N-(3-(5-fluoro-2-(6-(1,1-dioxidothiomorpholin-4-yl)pyridin-3-ylamino)pyrimidin-4-ylamino)phenyl)acrylamide]
IC50 (ITK): < 10 nM | IC50 (BTK): < 10 nM | IC50 (EGFR-WT; [1]): < 10 nM

C=CC(=O)Nc1cccc(Nc2nc(Nc3ccc(OC(C)CO)c(F)c3)ncc2F)c1 (stereo not drawn) [Compound I-333, N-(3-(5-fluoro-2-(3-fluoro-4-(1-hydroxypropan-2-yloxy)phenylamino)pyrimidin-4-ylamino)phenyl)acrylamide]
IC50 (ITK): 10 to 100 nM | IC50 (BTK): < 10 nM | IC50 (EGFR-WT): 10 to 100 nM

C=CC(=O)Nc1cccc(Nc2nc(Nc3ccc(OCCN4CCCC4=O)nc3)ncc2F)c1 [Compound I-70, N-(3-(5-fluoro-2-(6-(2-(2-oxopyrrolidin-1-yl)ethoxy)pyridin-3-ylamino)pyrimidin-4-ylamino)phenyl)acrylamide]
IC50 (ITK): < 10 nM | IC50 (BTK): < 10 nM | IC50 (EGFR-WT): 10 to 100 nM

C=CC(=O)Nc1cccc(Nc2nc(Nc3cccc(OCCCn4ccnc4)c3)ncc2F)c1 [Compound I-204, N-(3-(2-(3-(3-(1H-imidazol-1-yl)propoxy)phenylamino)-5-fluoropyrimidin-4-ylamino)phenyl)acrylamide]
IC50 (ITK): 10 to 100 nM | IC50 (EGFR-WT): 10 to 100 nM

COCCOc1ccc(Nc2ncc(F)c(Nc3cccc(NC(=O)/C=C/CN4CC[C@H](O)C4)c3)n2)cc1 [Compound I-88, (S,E)-N-(3-(5-fluoro-2-(4-(2-methoxyethoxy)phenylamino)pyrimidin-4-ylamino)phenyl)-4-(3-hydroxypyrrolidin-1-yl)but-2-enamide]
IC50 (ITK): 10 to 100 nM | IC50 (BTK): < 10 nM | IC50 (EGFR-WT): 10 to 100 nM

C=CC(=O)Nc1cccc(Nc2nc(Nc3ccc(OCC(C)(C)O)cc3)ncc2F)c1 [Compound I-73, N-(3-(5-fluoro-2-(4-(2-hydroxy-2-methylpropoxy)phenylamino)pyrimidin-4-ylamino)phenyl)acrylamide]
IC50 (ITK): < 10 nM | IC50 (BTK): < 10 nM

C=CC(=O)Nc1cccc(Nc2nc(Nc3ccc(O[C@H]4CCOC4)nc3)ncc2F)c1 [Compound I-54]
IC50 (ITK): 10 to 100 nM | IC50 (BTK): < 10 nM | IC50 (EGFR-WT): 10 to 100 nM

C=CC(=O)Nc1cccc(Nc2nc(Nc3ccc(Cl)c(O[C@@H](C)CO)c3)ncc2F)c1 [Compound I-357, (S)—N-(3-(2-(4-chloro-3-(1-hydroxypropan-2-yloxy)phenylamino)-5-fluoropyrimidin-4-ylamino)phenyl)acrylamide]
IC50 (ITK): 10 to 100 nM | IC50 (BTK): < 10 nM | IC50 (EGFR-WT): 100 to 1000 nM

C=CC(=O)Nc1cccc(Nc2nc(Nc3cccc(OCCCNC(=O)CCCC[C@@H]4SC[C@@H]5NC(=O)N[C@@H]54)c3)ncc2C)c1 [Compound I-237, N-(3-(3-(4-(3-acrylamidophenylamino)-5-methylpyrimidin-2-ylamino)phenoxy)propyl)-5-((3aS,4S,6aR)-2-oxohexahydro-1H-thieno[3,4-d]imidazol-4-yl)pentanamide]
IC50 (ITK): < 10 nM | IC50 (BTK): < 10 nM | IC50 (EGFR-WT): 10 to 100 nM

C=CC(=O)N(C)Cc1ccc(Oc2nc(Nc3cccc(OCCN4CCCC4=O)c3)ncc2F)cc1 [Compound I-146, N-(4-(5-fluoro-2-(3-(2-(2-oxopyrrolidin-1-yl)ethoxy)phenylamino)pyrimidin-4-yloxy)benzyl)-N-methylacrylamide]
IC50 (ITK): 10 to 100 nM | IC50 (BTK): < 10 nM

C=CC(=O)Nc1cccc(Nc2nc(Nc3ccc(OCC(C)(C)O)c(F)c3)ncc2F)c1 [Compound I-315, N-(3-(5-fluoro-2-(3-fluoro-4-(2-hydroxy-2-methylpropoxy)phenylamino)pyrimidin-4-ylamino)phenyl)acrylamide]
IC50 (ITK): 10 to 100 nM | IC50 (EGFR-WT): 10 to 100 nM

C=CC(=O)Nc1cccc(Nc2nc(Nc3cccc(OCCCS(C)(=O)=O)c3)ncc2F)c1 [Compound I-138, 4-(3-acrylamidophenylamino)-5-fluoro-2-(3-(3-(methylsulfonyl)propoxy)phenylamino)-pyrimidine]
IC50 (ITK): 10 to 100 nM | IC50 (EGFR-WT): 10 to 100 nM

COCCN(C)C/C=C/C(=O)Nc1cccc(Nc2ncc(F)c(Nc3cccc(C)c3)n2)c1 [Compound I-120, (E)-N-(3-(5-fluoro-4-(m-tolylamino)pyrimidin-2-ylamino)phenyl)-4-((2-methoxyethyl)(methyl)amino)but-2-enamide]
IC50 (BTK): < 10 nM | IC50 (EGFR-WT; [1]): < 10 nM

C=CC(=O)Nc1cccc(Oc2nc(Nc3cccc(N4CCN(CCO)CC4)c3)ncc2F)c1 [Compound I-84, N-(3-(5-fluoro-2-(3-(4-(2-hydroxyethyl)piperazin-1-yl)phenylamino)pyrimidin-4-yloxy)phenyl)acrylamide]
IC50 (BTK): < 10 nM | IC50 (EGFR-WT; [1]): < 10 nM

C=CC(=O)N1CC(Nc2nc(Nc3ccc(OC)nc3)ncc2C(C)=O)C1 [Compound I-187, 1-{3-[5-Acetyl-2-(6-methoxy-pyridin-3-ylamino)-pyrimidin-4-ylamino]-azetidin-1-yl}-propenone]
IC50 (BTK): 10 to 100 nM | IC50 (EGFR-WT): 100 to 1000 nM

N^1-(2-(2-(4-(4-(3-acrylamidophenylamino)-5-fluoropyrimidin-2-ylamino)-2-fluorophenoxy)ethoxy)ethyl)-N^5-(15-oxo-18-((3aR,4R,6aS)-2-oxohexahydro-1H-thieno[3,4-d]imidazol-4-yl)-4,7,10-trioxa-14-azaoctadecyl)glutaramide [Compound I-362]
IC50 (ITK): 10 to 100 nM | IC50 (BTK): < 10 nM

C=CC(=O)N1CCC(Nc2nc(Nc3ccc(OC)nc3)ncc2F)C1 (stereo not drawn) [Compound I-203, 1-(3-(5-fluoro-2-(6-methoxypyridin-3-ylamino)pyrimidin-4-ylamino)pyrrolidin-1-yl)prop-2-en-1-one]
IC50 (BTK): 10 to 100 nM | IC50 (EGFR-WT): 100 to 1000 nM

C=CC(=O)N1CCC[C@@H](Nc2nc(Nc3ccc(OCCOC)c(F)c3)ncc2F)C1 [Compound I-344]
IC50 (BTK): < 10 nM | IC50 (EGFR-WT): 100 to 1000 nM

C=CC(=O)Nc1cccc(N(C)c2nc(Nc3ccccc3)ncc2C)c1 [Compound I-34, N-(3-(methyl(5-methyl-2-(phenylamino)pyrimidin-4-yl)amino)phenyl)acrylamide]
IC50 (BTK): 10 to 100 nM | IC50 (EGFR-WT): 100 to 1000 nM

C=CC(=O)Nc1cccc(Nc2nc(Nc3ccc(OCC(O)CO)cc3)ncc2F)c1 (stereo not drawn) [Compound I-335, N-(3-(2-(4-(2,3-dihydroxypropoxy)phenylamino)-5-fluoropyrimidin-4-ylamino)phenyl)acrylamide]
IC50 (BTK): < 10 nM | IC50 (EGFR-WT; [1]): < 10 nM

C=CC(=O)Nc1cccc(Nc2nc(Nc3ccc(OCCOC)cc3)ncc2C#N)c1 [Compound I-109, N-(3-(5-cyano-2-(4-(2-methoxyethoxy)phenylamino)pyrimidin-4-ylamino)phenyl)acrylamide]
IC50 (BTK): < 10 nM | IC50 (EGFR-WT; [1]): < 10 nM

C=CC(=O)Nc1cccc(N(C(=O)C=C)c2nc(Nc3ccc(OC)nc3)ncc2C#N)c1 [Compound I-171, N-(3-acrylamidophenyl)-N-(5-cyano-2-(6-methoxypyridin-3-ylamino)pyrimidin-4-yl)acrylamide]
IC50 (BTK): < 10 nM | IC50 (EGFR-WT): 10 to 100 nM
